Experimental data from US9187658B2, “Photopolymerizable inkjet ink, ink cartridge, and inkjet recording device” (Ricoh Company, Ltd., priority 2013, dated 2015).
Where two headings read alike, the source gives them in different places.

Assays:
female mice [1] = test: Skin sensitization test, local lymph node assay (LLNA, OECD test guideline 429), BrdU intake by ELISA; details: test substance 50.0 w/v % in acetone/olive oil 4:1, 25 μL/auricle once a day for 3 days
Description: (§1) According to the skin sensitization test of local lymph node assay (LLNA) specified in OECD test guideline 429, the SI value was measured in the following manner.
(§2) Before treated with the test substances, the positive control or the vehicle control, female mice were acclimated for 8 days including 6-day quarantine. No abnormalities were found in all the mice (used animals) during the quarantine/acclimation period. Based on the body weights measured 2 days before the initiation of sensitization, they were categorized into 2 groups (4 mice/group) by the body weight stratified random sampling method so that the body weight of each individual was within ±20% of the average body weight of all the individuals. Each of the used animals was 8 weeks old to 9 weeks old at the time of the initiation of sensitization. […]
(§3) About 24 hours after the administration of BrdU, the used animals were allowed to undergo euthanasia, and their auricular lymph nodes were sampled. […] Also, the average of the weights of the auricular lymph nodes and the standard error thereof were calculated for each group. […]
(§4) After returning the auricular lymph nodes to room temperature, the auricular lymph nodes were mashed with the gradual addition of physiological saline, and suspended therein. […] The thus-dispensed suspensions were measured for intake of BrdU by the ELISA method. […]

female mice [2] = details: mouse, in vivo
Description: as §1, §2, §3, §4

skin sensitization [3] = details: cited from earlier work
skin sensitization [4] = details: vinyl ethers stated as negative; basis not given; cited from earlier work

C=C(C)C(=O)OCCOCCOC(=O)C(=C)C [Compound 2G, Diethylene glycol dimethacrylate]
SI value (Stimulation Index) (female mice [1]): 1.1

Caprolactone-modified dipentaerythritol hexaacrylate [DPCA60]
SI value (Stimulation Index) (female mice [2]): 1.0

O=C(c1ccccc1)C1(O)CCCCC1 [Irgacure 184, 1-hydroxycyclohexylphenyl ketone]
Skin sensitization evaluated in MSDS (skin sensitization [3]): no

Cc1cc(C)c(C(=O)P(=O)(C(=O)c2c(C)cc(C)cc2C)c2ccccc2)c(C)c1 [Irgacure 819, Bis(2,4,6-trimethylbenzoyl)-phenylphosphone oxide]
Skin sensitization evaluated in MSDS (skin sensitization [3]; MSDS): yes

C=COCC [ethyl vinyl ether]
Skin sensitization (skin sensitization [4]): negative for skin sensitization

C=COCCCCO [hydroxybutyl vinyl ether]
Skin sensitization (skin sensitization [4]): negative for skin sensitization

C=COCCOCCOCCOC=C [triethylene glycol divinyl ether]
Skin sensitization (skin sensitization [4]): negative for skin sensitization
